Measured values as given in patent US7973080B2 (Ambria Dermatology AB, priority 2003, dated 2011).

Columns and labels:
S. aureus = test: MIC by standard blood agar dilution technique; details: S. aureus 916 × 8191; inoculate size 10^5; MR fuc −
Source text: (§1) The following bacteria were investigated: methicillin-resistant Staphylococcus aureus (MSRA), fucidic acid-resistant S. aureus, non-resistant S. pyogenes, coagulation-negative staphylococci (for resistance, see Table 1 below) vancomycin-resistant enterococci (Enterococcus CCUG van A and van B), non-resistant Escherichia coli, Acinetobacter resistant against cefadroxil, nitrofurantin, mecillinam, Serratia maltophilia resistant against most types of antibiotics, Enterobacter (for resistance, see Table 1 below; additionally resistant against cefadroxil and nitrofurantin), non-resistant α-streptococci, non-resistant Streptococcus Group G, Pseudomonas aeruginosa (for resistance, see Table 2 below). Inocula of 10^3 and 10^5 bacteria were used.

Enterobacter = test: MIC by standard blood agar dilution technique; details: MR tri −
Source text: as §1

Acinetobacter = test: MIC by standard blood agar dilution technique; details: inoculate size 10^3
Source text: as §1

S. pyogenes, group A = test: MIC by standard blood agar dilution technique
Source text: as §1

S. maltophilia = test: MIC by standard blood agar dilution technique; details: inoculate size 10^3
Source text: as §1

Alphastreptococci = test: MIC by standard blood agar dilution technique; details: inoculate size 10^3
Source text: as §1

[1] = tested on: methicillin-resistant Staphylococcus aureus; test: MIC by standard blood agar dilution technique; details: MR fuc +, met +
Source text: as §1

male rabbits = details: four male rabbits, skin sealed 24 hrs, highest tested dose 20 ml/kg, observed over a fortnight
Experimental: Topical administration. The penetration of rabbit skin was tested with a cuff model. The hair on the back of four male rabbits weighing from 2.5 to 3.5 kg was removed by shaving, the diol applied to the skin with a pipette, and the skin sealed with polyethylene film for 24 hrs. During the test period the animals were immobilised. After the exposure the animals were observed over a fortnight period.

OCCCCCO [pentane-1,5-diol]
MIC (% by weight of pentane-1,5-diol) (S. aureus): 15.0 % by weight
MIC (% by weight of pentane-1,5-diol) (Enterobacter; Enterobacter 921 × 57097, inoculate size 10^3): 5.0 % by weight
MIC (% by weight of pentane-1,5-diol) (Enterobacter; Enterobacter 921 × 57097, inoculate size 10^5): 10.0 % by weight
MIC (% by weight of pentane-1,5-diol) (Enterobacter; Enterobacter 921 × 57100, inoculate size 10^3): 5.0 % by weight
MIC (% by weight of pentane-1,5-diol) (Enterobacter; Enterobacter 921 × 57100, inoculate size 10^5): 10.0 % by weight
MIC (% by weight of pentane-1,5-diol) (Enterobacter; Enterobacter 921 × 57119, inoculate size 10^3): 5.0 % by weight
MIC (% by weight of pentane-1,5-diol) (Enterobacter; Enterobacter 921 × 57119, inoculate size 10^5): 10.0 % by weight
MIC (% by weight of pentane-1,5-diol) (Enterobacter; Enterobacter 921 × 57416, inoculate size 10^3): 5.0 % by weight
MIC (% by weight of pentane-1,5-diol) (Enterobacter; Enterobacter 921 × 57416, inoculate size 10^5): 10.0 % by weight
MIC (% by weight of pentane-1,5-diol) (Enterobacter; Enterobacter 921 × 57514, inoculate size 10^3): 5.0 % by weight
MIC (% by weight of pentane-1,5-diol) (Enterobacter; Enterobacter 921 × 57514, inoculate size 10^5): 10.0 % by weight
MIC (% by weight of pentane-1,5-diol) (Enterobacter; Enterobacter 921 × 57574, inoculate size 10^3): 5.0 % by weight
MIC (% by weight of pentane-1,5-diol) (Enterobacter; Enterobacter 921 × 57574, inoculate size 10^5): 10.0 % by weight
MIC (% by weight of pentane-1,5-diol) (Acinetobacter; Acinetobacter 116 × 305): 5.0 % by weight
MIC (% by weight of pentane-1,5-diol) (Acinetobacter; Acinetobacter 117 × 217): 5.0 % by weight
MIC (% by weight of pentane-1,5-diol) (Acinetobacter; Acinetobacter 514 × 1224): 5.0 % by weight
MIC (% by weight of pentane-1,5-diol) (Acinetobacter; Acinetobacter 516 × 748): 2.5 % by weight
MIC (% by weight of pentane-1,5-diol) (Acinetobacter; Acinetobacter 921 × 16968): 5.0 % by weight
MIC (% by weight of pentane-1,5-diol) (Acinetobacter; Acinetobacter 921 × 113359): 2.5 % by weight
MIC (% by weight of pentane-1,5-diol) (S. pyogenes, group A; group A 912 × 1090, inoculate size 10^3): 7.5 % by weight
MIC (% by weight of pentane-1,5-diol) (S. pyogenes, group A; group A 912 × 1115, inoculate size 10^3): 7.5 % by weight
MIC (% by weight of pentane-1,5-diol) (S. pyogenes, group A; group A 912 × 1119, inoculate size 10^3): 7.5 % by weight
MIC (% by weight of pentane-1,5-diol) (S. pyogenes, group A; group A 912 × 1121, inoculate size 10^3): 7.5 % by weight
MIC (% by weight of pentane-1,5-diol) (S. pyogenes, group A; group A 912 × 1131, inoculate size 10^3): 7.5 % by weight
MIC (% by weight of pentane-1,5-diol) (S. maltophilia; S. maltophilia 515 × 695): 5.0 % by weight
MIC (% by weight of pentane-1,5-diol) (S. maltophilia; S. maltophilia 515 × 1269): 2.5 % by weight
MIC (% by weight of pentane-1,5-diol) (S. maltophilia; S. maltophilia 516 × 679): 5.0 % by weight
MIC (% by weight of pentane-1,5-diol) (S. maltophilia; S. maltophilia 900 × 1230): 5.0 % by weight
MIC (% by weight of pentane-1,5-diol) (S. maltophilia; S. maltophilia 921 × 16157): 5.0 % by weight
MIC (% by weight of pentane-1,5-diol) (Alphastreptococci; Alphastreptococci 912 × 1135): 7.5 % by weight
MIC (% by weight of pentane-1,5-diol) (Alphastreptococci; Alphastreptococci 912 × 1137): 5.0 % by weight
MIC (% by weight of pentane-1,5-diol) (Alphastreptococci; Alphastreptococci 912 × 1138): 5.0 % by weight
MIC (% by weight of pentane-1,5-diol) (Alphastreptococci; Alphastreptococci 912 × 1139): 7.5 % by weight
MIC (% by weight of pentane-1,5-diol) (Alphastreptococci; Alphastreptococci 912 × 1200): 7.5 % by weight
MIC (% by weight of pentane-1,5-diol) ([1]; MRSA CCUG 41787, inoculate size 10^3): 12.5 % by weight
MIC (% by weight of pentane-1,5-diol) ([1]; MRSA CCUG 41787, inoculate size 10^5): 17.5 % by weight
MIC (% by weight of pentane-1,5-diol) ([1]; MRSA CCUG 45007, inoculate size 10^3): 10.0 % by weight
MIC (% by weight of pentane-1,5-diol) ([1]; MRSA CCUG 45007, inoculate size 10^5): 12.5 % by weight
MIC (% by weight of pentane-1,5-diol) ([1]; MRSA CCUG 45008, inoculate size 10^3): 12.5 % by weight
MIC (% by weight of pentane-1,5-diol) ([1]; MRSA CCUG 45008, inoculate size 10^5): 15.0 % by weight
MIC (% by weight of pentane-1,5-diol) ([1]; MRSA CCUG 46463, inoculate size 10^3): 10.0 % by weight
MIC (% by weight of pentane-1,5-diol) ([1]; MRSA CCUG 46463, inoculate size 10^5): 15.0 % by weight
MIC (% by weight of pentane-1,5-diol) ([1]; MRSA CCUG 46618, inoculate size 10^3): 12.5 % by weight
MIC (% by weight of pentane-1,5-diol) ([1]; MRSA CCUG 46618, inoculate size 10^5): 15.0 % by weight
MIC (% by weight of pentane-1,5-diol) ([1]; MRSA CCUG 46740, inoculate size 10^3): 12.5 % by weight
MIC (% by weight of pentane-1,5-diol) ([1]; MRSA CCUG 46740, inoculate size 10^5): 17.5 % by weight
MIC (% by weight of pentane-1,5-diol) ([1]; MRSA CCUG 46870, inoculate size 10^3): 10.0 % by weight
MIC (% by weight of pentane-1,5-diol) ([1]; MRSA CCUG 46870, inoculate size 10^5): 17.5 % by weight
MIC (% by weight of pentane-1,5-diol) ([1]; MRSA CCUG 47019, inoculate size 10^3): 10.0 % by weight
MIC (% by weight of pentane-1,5-diol) ([1]; MRSA CCUG 47019, inoculate size 10^5): 17.5 % by weight
MIC (% by weight of pentane-1,5-diol) ([1]; MRSA Cypem, inoculate size 10^3): 7.5 % by weight
MIC (% by weight of pentane-1,5-diol) ([1]; MRSA Cypem, inoculate size 10^5): 10.0 % by weight
MIC (% by weight of pentane-1,5-diol) ([1]; MRSA PB/SS, inoculate size 10^3): 12.5 % by weight
MIC (% by weight of pentane-1,5-diol) ([1]; MRSA PB/SS, inoculate size 10^5): 15.0 % by weight
survival after topical administration (male rabbits): the animals survived
